These results are taken from patent publication US12162820B2 (TAIWANJ PHARMACEUTICALS CO., LTD., priority 2019, dated 2024).

Holding throughout (assay type): biochemical
One assay deals with T1, HDAC1 (Homo sapiens, UniProt Q13547).
T1 construct: purchased Enzo Life Sciences
The experiment in a line: HDAC Inhibition Screening Assay (FLUOR DE LYS Fluorimetric Drug Discovery Kit), HDAC1. The note with it: for inhibition at 2 µM: 2 μM compound; for inhibition at 10 µM: 10 μM compound; for inhibition at 50 µM: 50 μM compound. In short, it runs like this:
(§1)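 Compounds at 2 μM, 10 μM and 50 μM were each tested against HDAC1, HDAC2 and HDAC3 using a two-step fluorimetric assay. Results are given as percent of basal control after baseline subtraction.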

The target in a further assay is T2, HDAC2 (Homo sapiens, UniProt Q92769).
T2 construct: purchased Enzo Life Sciences
Description: HDAC Inhibition Screening Assay (FLUOR DE LYS Fluorimetric Drug Discovery Kit), HDAC2. The note with it: for inhibition at 2 µM: 2 μM compound; for inhibition at 10 µM: 10 μM compound; for inhibition at 50 µM: 50 μM compound. The method, boiled down:
as §1

The target of a further assay is T3, HDAC3 (Homo sapiens, UniProt O15379).
T3 construct: purchased Enzo Life Sciences
The experiment in a line: HDAC Inhibition Screening Assay (FLUOR DE LYS Fluorimetric Drug Discovery Kit), HDAC3. The note with it: for inhibition at 2 µM: 2 μM compound; for inhibition at 10 µM: 10 μM compound; for inhibition at 50 µM: 50 μM compound. In short, it runs like this: as §1

The next assay deals with T4, ATX (autotaxin) (Homo sapiens, UniProt Q13822).
T4 construct: purchased Cayman 10803
Description: Autotaxin Inhibition Screening Assay (choline release from LPC, LPC-CR). The note with it: for inhibition at 4 µM: 4 μM compound; for inhibition at 20 µM: 20 μM compound; for inhibition at 50 µM: 50 μM compound. The method, boiled down:
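20 ng ATX incubated with 100 μM 14:0 LPC in 50 mM Tris pH 8.0, 0.01% Triton X-100, 50 mM CaCl2, with choline oxidase/HRP/2 mM HVA coupling; compounds at 4, 20 and 50 μM. HVA fluorescence (ex/em 320/450 nm) read every 60 s for 90 min; inhibition % from slopes corrected for blank versus vehicle.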

T1 sequence (Q13547 whole entry): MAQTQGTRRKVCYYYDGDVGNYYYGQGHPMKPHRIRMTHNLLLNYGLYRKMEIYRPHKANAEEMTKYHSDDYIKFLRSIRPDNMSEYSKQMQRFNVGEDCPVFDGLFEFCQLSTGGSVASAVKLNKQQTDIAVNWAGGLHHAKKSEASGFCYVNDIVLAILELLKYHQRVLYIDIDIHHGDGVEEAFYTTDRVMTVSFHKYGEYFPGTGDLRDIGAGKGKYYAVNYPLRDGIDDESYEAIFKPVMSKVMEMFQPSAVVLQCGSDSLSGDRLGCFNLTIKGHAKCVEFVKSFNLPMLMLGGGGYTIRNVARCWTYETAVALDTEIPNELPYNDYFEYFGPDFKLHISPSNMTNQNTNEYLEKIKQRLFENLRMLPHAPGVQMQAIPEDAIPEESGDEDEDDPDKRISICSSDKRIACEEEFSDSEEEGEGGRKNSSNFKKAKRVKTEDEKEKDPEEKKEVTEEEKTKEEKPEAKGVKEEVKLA
T3 sequence (O15379 whole entry): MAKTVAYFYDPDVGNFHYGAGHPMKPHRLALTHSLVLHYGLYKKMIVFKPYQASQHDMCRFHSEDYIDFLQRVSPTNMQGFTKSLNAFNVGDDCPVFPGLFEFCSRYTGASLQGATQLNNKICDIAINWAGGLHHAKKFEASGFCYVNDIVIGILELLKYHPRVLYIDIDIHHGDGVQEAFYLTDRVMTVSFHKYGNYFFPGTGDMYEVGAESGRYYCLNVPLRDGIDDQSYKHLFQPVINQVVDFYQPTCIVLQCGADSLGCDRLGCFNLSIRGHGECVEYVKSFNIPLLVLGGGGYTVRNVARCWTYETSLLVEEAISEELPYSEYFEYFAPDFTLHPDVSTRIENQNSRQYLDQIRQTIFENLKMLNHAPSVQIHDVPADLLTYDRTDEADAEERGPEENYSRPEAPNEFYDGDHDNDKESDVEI
T3 sequence (O75376 395-489 partner limits assumed): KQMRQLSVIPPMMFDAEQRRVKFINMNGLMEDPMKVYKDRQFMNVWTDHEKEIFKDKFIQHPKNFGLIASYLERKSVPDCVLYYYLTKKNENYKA
T2 sequence (Q92769 whole entry): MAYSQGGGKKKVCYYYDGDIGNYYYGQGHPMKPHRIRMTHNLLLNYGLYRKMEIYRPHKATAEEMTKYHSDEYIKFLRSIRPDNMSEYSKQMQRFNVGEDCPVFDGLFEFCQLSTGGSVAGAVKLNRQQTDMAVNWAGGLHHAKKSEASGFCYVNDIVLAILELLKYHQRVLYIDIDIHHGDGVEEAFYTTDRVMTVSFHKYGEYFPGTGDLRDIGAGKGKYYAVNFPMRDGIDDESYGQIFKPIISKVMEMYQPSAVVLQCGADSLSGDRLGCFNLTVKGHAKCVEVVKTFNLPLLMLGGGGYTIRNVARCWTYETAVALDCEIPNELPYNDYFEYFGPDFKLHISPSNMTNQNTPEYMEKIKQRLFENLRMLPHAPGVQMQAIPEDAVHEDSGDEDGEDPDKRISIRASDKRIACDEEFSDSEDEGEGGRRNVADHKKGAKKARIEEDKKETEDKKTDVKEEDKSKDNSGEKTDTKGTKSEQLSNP

For `O=C(CCCCCCC(=O)Nc1ccc2c(c1)CCCC2O)NO` (stereo not drawn) [Compound 2, N^1-hydroxy-N^8-(5-hydroxy-5,6,7,8-tetrahydronaphthalen-2-yl)octanediamide], at HDAC1, the inhibition at 2 µM was over 80%, the inhibition at 10 µM was over 80% and the inhibition at 50 µM is over 80%. Further, on HDAC2, the inhibition at 2 µM is over 80%, the inhibition at 10 µM is over 80% and the inhibition at 50 µM is over 80%. In addition, at HDAC3, the inhibition at 2 µM was over 80%, the inhibition at 10 µM was over 80% and the inhibition at 50 µM is over 80%. At ATX (autotaxin), this compound gave an inhibition at 4 µM of under 50%, an inhibition at 20 µM of under 50% and an inhibition at 50 µM of under 50%.

Take `O=C(/C=C/c1ccc2c(c1)CCCC2OCc1cc(C(F)(F)F)cc(C(F)(F)F)c1)NO` (stereo not drawn) [Compound 36, (E)-3-(5-((3,5-bis(trifluoromethyl)benzyl)oxy)-5,6,7,8-tetrahydronaphthalen-2-yl)-N-hydroxy acrylamide]: on HDAC1, the inhibition at 2 µM is under 50%, the inhibition at 10 µM is over 80% and the inhibition at 50 µM was over 80%. On HDAC2, the inhibition at 2 µM lay within 50 to 80%, the inhibition at 10 µM is over 80% and the inhibition at 50 µM was over 80%. Moreover, at HDAC3, the inhibition at 2 µM is under 50%, the inhibition at 10 µM is 50 to 80% and the inhibition at 50 µM is over 80%. Besides, at ATX (autotaxin), the inhibition at 4 µM was under 50%, the inhibition at 20 µM was under 50% and the inhibition at 50 µM is under 50%.

For `CCN(CC)c1ccc(C(=O)NC2CCc3cc(/C=C/C(=O)Nc4ccc(F)cc4N)ccc32)cc1` (stereo not drawn) [Compound 27], at HDAC1, the inhibition at 2 µM is under 50%, the inhibition at 10 µM was under 50% and the inhibition at 50 µM is under 50%. Also, at HDAC2, the inhibition at 2 µM is under 50%, the inhibition at 10 µM was under 50% and the inhibition at 50 µM was under 50%. Further, on HDAC3, the inhibition at 2 µM is under 50%, the inhibition at 10 µM was under 50% and the inhibition at 50 µM is under 50%. On ATX (autotaxin), this compound showed an inhibition at 4 µM of under 50%, an inhibition at 20 µM of under 50% and an inhibition at 50 µM of under 50%.

As for `Nc1cc(F)ccc1NC(=O)CCCCCC(=O)Nc1ccc2c(c1)CC/C(=C\c1cc(C(F)(F)F)cc(C(F)(F)F)c1)C2=O` [Compound 11, (E)-N1-(2-amino-4-fluorophenyl)-N7-(6-(3,5-bis(trifluoromethyl)benzylidene)-5-oxo-5,6,7,8-tetrahydronaphthalen-2-yl)heptanediamide], at HDAC1, the inhibition at 2 µM was under 50%, the inhibition at 10 µM is under 50% and the inhibition at 50 µM is under 50%. For the same compound, at HDAC2, the inhibition at 2 µM is under 50%, the inhibition at 10 µM was under 50% and the inhibition at 50 µM is under 50%. In addition, at HDAC3, the inhibition at 2 µM is under 50%, the inhibition at 10 µM is under 50% and the inhibition at 50 µM was under 50%. On ATX (autotaxin), this compound displayed an inhibition at 4 µM of over 80%, an inhibition at 20 µM of over 80% and an inhibition at 50 µM of over 80%.

On to `O=C(/C=C/c1ccc2c(c1)CCC2NS(=O)(=O)c1cc(C(F)(F)F)cc(C(F)(F)F)c1)NO` (stereo not drawn) [Compound 18], for which, at HDAC1, the inhibition at 2 µM was under 50%, the inhibition at 10 µM fell in the range of 50 to 80% and the inhibition at 50 µM was over 80%. At HDAC2, the inhibition at 2 µM is 50 to 80%, the inhibition at 10 µM was 50 to 80% and the inhibition at 50 µM is over 80%. Moreover, on HDAC3, the inhibition at 2 µM was under 50%, the inhibition at 10 µM was in the range of 50 to 80% and the inhibition at 50 µM was over 80%. At ATX (autotaxin), this compound came in with an inhibition at 4 µM of under 50%, an inhibition at 20 µM of under 50% and an inhibition at 50 µM of under 50%.

On to `Cc1[nH]c2ccccc2c1CCNC1CCCc2cc(/C=C/C(=O)NO)ccc21` (stereo not drawn) [Compound 63, (E)-N-hydroxy-3-(5-((2-(2-methyl-1H-indol-3-yl)ethyl)amino)-5,6,7,8-tetrahydronaphthalen-2-yl)acrylamide], for which, on HDAC1, the inhibition at 2 µM was over 80%, the inhibition at 10 µM was over 80% and the inhibition at 50 µM is over 80%. Also, at HDAC2, the inhibition at 2 µM was over 80%, the inhibition at 10 µM was over 80% and the inhibition at 50 µM is over 80%. Further, on HDAC3, the inhibition at 2 µM is over 80%, the inhibition at 10 µM is over 80% and the inhibition at 50 µM was over 80%. Besides, on ATX (autotaxin), the inhibition at 4 µM is under 50%, the inhibition at 20 µM is under 50% and the inhibition at 50 µM was under 50%.

On to `O=C(/C=C/c1ccc2c(c1)CCC2NC(=O)c1ccc(F)cc1)NCCCCCC(=O)NO` (stereo not drawn) [Compound 32, (E)-4-fluoro-N-(5-(3-((6-(hydroxyamino)-6-oxohexyl)amino)-3-oxoprop-1-en-1-yl)-2,3-dihydro-1H-inden-1-yl)benzamide], for which, at HDAC1, the inhibition at 2 µM was over 80%, the inhibition at 10 µM is over 80% and the inhibition at 50 µM is over 80%. Further, at HDAC2, the inhibition at 2 µM is over 80%, the inhibition at 10 µM is over 80% and the inhibition at 50 µM was over 80%. At HDAC3, the inhibition at 2 µM lay in the range of 50 to 80%, the inhibition at 10 µM is over 80% and the inhibition at 50 µM was over 80%. Further, at ATX (autotaxin), the inhibition at 4 µM was under 50%, the inhibition at 20 µM was under 50% and the inhibition at 50 µM is under 50%.

As for `O=C(/C=C/c1ccc(COc2ccc3c(c2)CCCC3=O)cc1)NO` [Compound 70, (E)-N-hydroxy-3-(4-(((5-oxo-5,6,7,8-tetrahydronaphthalen-2-yl)oxy)-methyl)phenyl)acrylamide], on HDAC1, the inhibition at 2 µM lay in the range of 50 to 80%, the inhibition at 10 µM was over 80% and the inhibition at 50 µM was over 80%. Further, at HDAC2, the inhibition at 2 µM was over 80%, the inhibition at 10 µM is over 80% and the inhibition at 50 µM was over 80%. Moreover, on HDAC3, the inhibition at 2 µM was over 80%, the inhibition at 10 µM is over 80% and the inhibition at 50 µM was over 80%. At ATX (autotaxin), the inhibition at 4 µM is under 50%, the inhibition at 20 µM was 50 to 80% and the inhibition at 50 µM fell in the range of 50 to 80%.

In the case of `O=C(/C=C/c1ccc(CNC(=O)COc2ccc3c(c2)CC/C(=C\c2cc(C(F)(F)F)cc(C(F)(F)F)c2)C3=O)cc1)NO` [Compound 75], at HDAC1, the inhibition at 2 µM is under 50%, the inhibition at 10 µM is under 50% and the inhibition at 50 µM was in the range of 50 to 80%. Further, on HDAC2, the inhibition at 2 µM is under 50%, the inhibition at 10 µM is under 50% and the inhibition at 50 µM lay within 50 to 80%. In addition, on HDAC3, the inhibition at 2 µM is under 50%, the inhibition at 10 µM is under 50% and the inhibition at 50 µM lay in the range of 50 to 80%. At ATX (autotaxin), this compound showed an inhibition at 4 µM of 50 to 80%, an inhibition at 20 µM of 50 to 80% and an inhibition at 50 µM of 50 to 80%.

As for `O=C(CCCCCNC(=O)c1ccc2c(c1)CC/C(=C\c1cc(C(F)(F)F)cc(C(F)(F)F)c1)C2=O)NO` [Compound 79, (E)-6-(3,5-bis(trifluoromethyl)benzylidene)-N-(6-(hydroxyamino)-6-oxohexyl)-5-oxo-5,6,7,8-tetrahydronaphthalene-2-carboxamide], on HDAC1, the inhibition at 2 µM lay within 50 to 80%, the inhibition at 10 µM was over 80% and the inhibition at 50 µM is over 80%. Moreover, on HDAC2, the inhibition at 2 µM lay within 50 to 80%, the inhibition at 10 µM is over 80% and the inhibition at 50 µM was over 80%. In addition, on HDAC3, the inhibition at 2 µM was in the range of 50 to 80%, the inhibition at 10 µM is over 80% and the inhibition at 50 µM is over 80%. On ATX (autotaxin), this compound displayed an inhibition at 4 µM of over 80%, an inhibition at 20 µM of over 80% and an inhibition at 50 µM of over 80%.

Turning to `COc1ccc(CCNC2CCc3cc(/C=C/C(=O)Nc4ccc(F)cc4N)ccc32)cc1` (stereo not drawn) [Compound 51, (E)-N-(2-amino-4-fluorophenyl)-3-(1-((4-methoxyphenethyl)amino)-2,3-dihydro-1H-inden-5-yl) acrylamide], on HDAC1, the inhibition at 2 µM is under 50%, the inhibition at 10 µM is 50 to 80% and the inhibition at 50 µM was over 80%. Further, on HDAC2, the inhibition at 2 µM was in the range of 50 to 80%, the inhibition at 10 µM was over 80% and the inhibition at 50 µM is over 80%. Also, on HDAC3, the inhibition at 2 µM is over 80%, the inhibition at 10 µM was over 80% and the inhibition at 50 µM is over 80%. For the same compound, on ATX (autotaxin), the inhibition at 4 µM is under 50%, the inhibition at 20 µM is under 50% and the inhibition at 50 µM was under 50%.

With `Nc1cc(F)ccc1NC(=O)/C=C/c1ccc2c(c1)CCC2NS(=O)(=O)c1cc(C(F)(F)F)cc(C(F)(F)F)c1` (stereo not drawn) [Compound 17, (E)-N-(2-amino-4-fluorophenyl)-3-(1-((3,5-bis(trifluoromethyl)phenyl)sulfonamido)-2,3-dihydro-1H-inden-5-yl)acrylamide], at HDAC1, the inhibition at 2 µM is under 50%, the inhibition at 10 µM is under 50% and the inhibition at 50 µM is under 50%. In addition, on HDAC2, the inhibition at 2 µM was under 50%, the inhibition at 10 µM was under 50% and the inhibition at 50 µM is under 50%. In addition, on HDAC3, the inhibition at 2 µM was under 50%, the inhibition at 10 µM is under 50% and the inhibition at 50 µM is under 50%. On ATX (autotaxin), the inhibition at 4 µM was under 50%, the inhibition at 20 µM was under 50% and the inhibition at 50 µM is under 50%.
